# Source: patent publication US10065970B2 (Genentech, Inc., priority 2015, dated 2018)
# Where two headings read alike, the source gives them in different places.
# Biological target: PI3Kα (alpha) (Homo sapiens (Human), UniProt P42336)
# Test: p110α (alpha) PI3K Binding Assay (ADP-Glo lipid kinase reaction)
# Type: biochemical
# Details: read-out: PI3Kα-(alpha) ATP (Ki) micromolar
# Description: The ability of a compound of the invention to act as an inhibitor of PI3Kα was determined using the methods of Example 901.
# PI3K Binding assays are intended for determining the biochemical potency of small molecule PI3K inhibitors. The PI3K lipid kinase reaction is performed in the presence of PIP2:3PS lipid substrate (Promega #V1792) and ATP. Following the termination if the kinase reaction, turnover of ATP to ADP by the phosphorylation of the lipid substrate is detected using the Promega ADP-Glo™ (Promega #V1792) assay. Reactions are carried out using the following conditions:
# After 120 minutes of reaction time, the kinase reaction is terminated. Any ATP remaining after the reaction is depleted, leaving only ADP. Then the Kinase Detection Reagent is added to convert ADP to ATP, which is used in a coupled luciferin/luciferase reaction. The luminescent output is measured and is correlated with kinase activity.
# All reactions are carried out at room temperature. A 3 μl mixture (1:1) of enzyme/lipid substrate solution is added to a 384 well white assay plate (Perkin Elmer #6007299) containing 50 nl of test compound or DMSO only for untreated controls. The reaction is started by the addition of 2 μl ATP/MgCl2. The kinase reaction buffer contains 50 mM HEPES, 50 mM NaCl, 3 mM MgCl2, 0.01% BSA, 1% DMSO, and enzyme and substrate concentrations as indicated in the above table. The reaction is stopped by the addition of 10 μL ADP-Glo reagent. Plates are read in a Perkin Elmer Envision system using luminescence mode. 10 point dose response curves are generated for each test compound. Ki values for each compound are determined using the Morrison Equation.
# [1] = PI3K alpha 0.2 nM, ATP 40 μM, PIP2:3PS 50 μM, 120 min, room temperature, Ki by Morrison Equation
# Chain of PI3Kα (alpha) (P42336 whole entry): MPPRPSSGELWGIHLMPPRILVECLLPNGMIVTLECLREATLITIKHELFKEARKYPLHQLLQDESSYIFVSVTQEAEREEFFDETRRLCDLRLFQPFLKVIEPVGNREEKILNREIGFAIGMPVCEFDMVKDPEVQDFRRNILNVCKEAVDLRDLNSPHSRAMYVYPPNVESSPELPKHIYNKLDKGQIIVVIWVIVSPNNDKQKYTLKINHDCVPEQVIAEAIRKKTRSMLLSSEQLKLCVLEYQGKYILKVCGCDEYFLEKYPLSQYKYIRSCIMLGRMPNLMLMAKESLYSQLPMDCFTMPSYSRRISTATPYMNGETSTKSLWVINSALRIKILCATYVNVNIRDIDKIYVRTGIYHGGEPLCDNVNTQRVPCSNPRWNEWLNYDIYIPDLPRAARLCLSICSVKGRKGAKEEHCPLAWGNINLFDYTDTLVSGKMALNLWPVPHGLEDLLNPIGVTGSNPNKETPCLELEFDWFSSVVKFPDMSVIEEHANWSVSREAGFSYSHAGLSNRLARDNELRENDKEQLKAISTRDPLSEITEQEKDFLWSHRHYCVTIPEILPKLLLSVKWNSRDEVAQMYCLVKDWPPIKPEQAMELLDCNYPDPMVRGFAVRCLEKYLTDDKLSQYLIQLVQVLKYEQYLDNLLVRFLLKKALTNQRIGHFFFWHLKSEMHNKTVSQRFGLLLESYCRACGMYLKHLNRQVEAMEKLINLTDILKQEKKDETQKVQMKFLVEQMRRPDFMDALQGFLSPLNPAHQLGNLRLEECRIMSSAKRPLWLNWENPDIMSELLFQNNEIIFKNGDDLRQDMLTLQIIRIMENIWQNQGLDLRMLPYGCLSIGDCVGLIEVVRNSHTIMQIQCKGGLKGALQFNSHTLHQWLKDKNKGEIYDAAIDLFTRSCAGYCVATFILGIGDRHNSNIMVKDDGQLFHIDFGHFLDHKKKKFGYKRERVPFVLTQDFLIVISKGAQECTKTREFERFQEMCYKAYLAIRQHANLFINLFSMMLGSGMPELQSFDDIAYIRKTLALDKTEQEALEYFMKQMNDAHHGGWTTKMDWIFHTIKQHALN
# Chain of PI3Kα (alpha) (P27986 whole entry partner): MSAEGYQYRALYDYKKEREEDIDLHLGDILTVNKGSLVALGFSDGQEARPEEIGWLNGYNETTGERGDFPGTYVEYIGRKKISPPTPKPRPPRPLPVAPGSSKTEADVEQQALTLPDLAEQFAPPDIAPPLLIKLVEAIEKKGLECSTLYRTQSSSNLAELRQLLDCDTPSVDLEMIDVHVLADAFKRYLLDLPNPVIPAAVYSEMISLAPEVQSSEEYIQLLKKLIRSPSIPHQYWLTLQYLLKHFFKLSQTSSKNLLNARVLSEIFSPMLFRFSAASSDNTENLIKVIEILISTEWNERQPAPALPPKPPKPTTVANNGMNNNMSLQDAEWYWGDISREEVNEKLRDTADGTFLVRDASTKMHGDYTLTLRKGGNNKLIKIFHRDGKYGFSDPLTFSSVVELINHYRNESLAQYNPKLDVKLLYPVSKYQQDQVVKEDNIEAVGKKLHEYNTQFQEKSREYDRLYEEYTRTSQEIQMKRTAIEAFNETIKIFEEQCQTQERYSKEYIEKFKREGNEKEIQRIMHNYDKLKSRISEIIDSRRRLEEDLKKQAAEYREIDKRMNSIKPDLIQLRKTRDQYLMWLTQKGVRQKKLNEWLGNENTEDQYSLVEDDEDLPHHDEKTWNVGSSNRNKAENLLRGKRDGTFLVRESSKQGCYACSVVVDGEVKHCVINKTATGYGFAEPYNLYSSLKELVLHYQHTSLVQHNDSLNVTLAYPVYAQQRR
smiles,measurement,setting,value
"C[C@H](Nc1cc2c3c(c1)nc(N1CCC(CO)CC1)n3CCCO2)C(N)=O [Example 140, (S)-2-[1-(4-Hydroxymethylpiperidin-1-yl)-8,9-dihydro-7H-6-oxa-2,9a-diazabenzo[cd]azulen-4-ylamino]propionamide]",Ki,[1],0.681 µM
"NC(=O)[C@@H](Nc1cc2c3c(c1)nc(N1CCOCC1)n3CCCO2)C1CC1 [Example 141, (S)-2-Cyclopropyl-2-((1-morpholino-8,9-dihydro-7H-6-oxa-2,9a-diazabenzo[cd]azulen-4-yl)amino)acetamide]",Ki,[1],0.74 µM
"NC(=O)[C@@H](Nc1cc2c3c(c1)nc(-c1cccc(OC(F)F)c1)n3CCCO2)C1CC1 [Example 143, (S)-2-Cyclopropyl-2-((1-(3-(difluoromethoxy)phenyl)-8,9-dihydro-7H-6-oxa-2,9a-diazabenzo[cd]azulen-4-yl)amino)acetamide]",Ki,[1],0.187 µM
"COc1ccc(-c2nc3cc(N[C@H](C(N)=O)C4CC4)cc4c3n2CCCO4)c(F)c1 [Example 144, (S)-2-Cyclopropyl-2-((1-(2-fluoro-4-methoxyphenyl)-8,9-dihydro-7H-6-oxa-2,9a-diazabenzo[cd]azulen-4-yl)amino)acetamide]",Ki,[1],0.34 µM
"NC(=O)[C@@H](Nc1cc2c3c(c1)nc(-c1ccc(F)cc1F)n3CCCO2)C1CC1 [Example 145, (S)-2-Cyclopropyl-2-((1-(2,4-difluorophenyl)-8,9-dihydro-7H-6-oxa-2,9a-diazabenzo[cd]azulen-4-yl)amino)acetamide]",Ki,[1],0.382 µM
"Cn1cc(-c2nc3cc(N[C@H](C(N)=O)C4CC4)cc4c3n2CCCO4)ccc1=O [Example 147, (S)-2-Cyclopropyl-2-((1-(1-methyl-6-oxo-1,6-dihydropyridin-3-yl)-8,9-dihydro-7H-6-oxa-2,9a-diazabenzo[cd]azulen-4-yl)amino)acetamide]",Ki,[1],0.139 µM
"NC(=O)[C@@H](Nc1cc2c3c(c1)nc(-c1cnc4c(c1)OCCO4)n3CCCO2)C1CC1 [Example 148, (S)-2-Cyclopropyl-2-((1-(2,3-dihydro-[1,4]dioxino[2,3-b]pyridin-7-yl)-8,9-dihydro-7H-6-oxa-2,9a-diazabenzo[cd]azulen-4-yl)amino)acetamide]",Ki,[1],0.059 µM
"NC(=O)[C@@H](Nc1cc2c3c(c1)nc(N1Cc4cnc(N)nc4C1)n3CCCO2)C1CC1 [Example 149, (S)-2-((1-(2-Amino-5H-pyrrolo[3,4-d]pyrimidin-6(7H)-yl)-8,9-dihydro-7H-6-oxa-2,9a-diazabenzo[cd]azulen-4-yl)amino)-2-cyclopropylacetamide]",Ki,[1],0.0182 µM
"NC(=O)[C@@H](Nc1cc2c3c(c1)nc(-c1ccc(OC(F)F)cc1)n3CCCO2)C1CC1 [Example 150, (S)-2-Cyclopropyl-2-((1-(4-(difluoromethoxy)phenyl)-8,9-dihydro-7H-6-oxa-2,9a-diazabenzo[cd]azulen-4-yl)amino)acetamide]",Ki,[1],0.49 µM
"NC(=O)c1cc(-c2nc3cc(N[C@H](C(N)=O)C4CC4)cc4c3n2CCCO4)ccn1 [Example 151, (S)-4-(4-((2-Amino-1-cyclopropyl-2-oxoethyl)amino)-8,9-dihydro-7H-6-oxa-2,9a-diazabenzo[cd]azulen-1-yl)picolinamide]",Ki,[1],0.0102 µM
"Nc1nc2cc(-c3nc4cc(-c5cnn(CCO)c5)cc5c4n3CCCO5)ccc2o1 [Example 152, 2-(4-(1-(2-Aminobenzo[d]oxazol-5-yl)-8,9-dihydro-7H-6-oxa-2,9a-diazabenzo[cd]azulen-4-yl)-1H-pyrazol-1-yl)ethanol]",Ki,[1],0.000638 µM
"Cn1cc(-c2cc3c4c(c2)nc(-c2ccc5oc(N)nc5c2)n4CCCO3)cn1 [Example 153, 5-(4-(1-Methyl-1H-pyrazol-4-yl)-8,9-dihydro-7H-6-oxa-2,9a-diazabenzo[cd]azulen-1-yl)benzo[d]oxazol-2-amine]",Ki,[1],0.00074 µM
"CNC(=O)C(C)(C)n1cc(-c2cc3c4c(c2)nc(-c2ccc5oc(N)nc5c2)n4CCCO3)cn1 [Example 154, 2-(4-(1-(2-Aminobenzo[d]oxazol-5-yl)-8,9-dihydro-7H-6-oxa-2,9a-diazabenzo[cd]azulen-4-yl)-1H-pyrazol-1-yl)-N,2-dimethylpropanamide]",Ki,[1],0.000317 µM
"NC(=O)[C@@H](Nc1cc2c3c(c1)nc(-c1ccc4[nH]c(=O)oc4c1)n3CCCO2)C1CC1 [Example 155, (S)-2-Cyclopropyl-2-((1-(2-oxo-2,3-dihydrobenzo[d]oxazol-6-yl)-8,9-dihydro-7H-6-oxa-2,9a-diazabenzo[cd]azulen-4-yl)amino)acetamide]",Ki,[1],0.078 µM
"NC(=O)[C@@H](Nc1cc2c3c(c1)nc(-c1ccn4ncnc4n1)n3CCCO2)C1CC1 [Example 156, (S)-2-((1-([1,2,4]triazolo[1,5-a]pyrimidin-5-yl)-8,9-dihydro-7H-6-oxa-2,9a-diazabenzo[cd]azulen-4-yl)amino)-2-cyclopropylacetamide]",Ki,[1],0.000264 µM
"NC(=O)c1cc(-c2nc3cc(N[C@H](C(N)=O)C4CC4)cc4c3n2CCCO4)ccc1F [Example 157, (S)-5-(4-((2-Amino-1-cyclopropyl-2-oxoethyl)amino)-8,9-dihydro-7H-6-oxa-2,9a-diazabenzo[cd]azulen-1-yl)-2-fluorobenzamide]",Ki,[1],0.0165 µM
"COC(=O)c1cc(-c2nc3cc(N[C@H](C(N)=O)C4CC4)cc4c3n2CCCO4)ccc1OC [Example 158, (S)-Methyl 5-(4-((2-amino-1-cyclopropyl-2-oxoethyl)amino)-8,9-dihydro-7H-6-oxa-2,9a-diazabenzo[cd]azulen-1-yl)-2-methoxybenzoate]",Ki,[1],0.206 µM
"CS(=O)(=O)c1cc(-c2nc3cc(N[C@H](C(N)=O)C4CC4)cc4c3n2CCCO4)ccn1 [Example 159, (S)-2-Cyclopropyl-2-((1-(2-(methylsulfonyl)pyridin-4-yl)-8,9-dihydro-7H-6-oxa-2,9a-diazabenzo[cd]azulen-4-yl)amino)acetamide]",Ki,[1],0.0872 µM
"Cc1nn(C)cc1-c1nc2cc(N[C@H](C(N)=O)C3CC3)cc3c2n1CCCO3 [Example 160, (S)-2-Cyclopropyl-2-[1-(1,3-dimethyl-1H-pyrazol-4-yl)-8,9-dihydro-7H-6-oxa-2,9a-diazabenzo[cd]azulen-4-ylamino]acetamide]",Ki,[1],0.914 µM
"NC(=O)[C@@H](Nc1cc2c3c(c1)nc(N1CCn4ncnc4C1)n3CCCO2)C1CC1 [Example 161, (S)-2-Cyclopropyl-2-((1-(5,6-dihydro-[1,2,4]triazolo[1,5-a]pyrazin-7(8H)-yl)-8,9-dihydro-7H-6-oxa-2,9a-diazabenzo[cd]azulen-4-yl)amino)acetamide]",Ki,[1],0.121 µM
"C[C@H](Oc1cc2c3c(c1)nc(-c1ccc4oc(N)nc4c1)n3CCCO2)C(N)=O [Example 162, (S)-2-((1-(2-Aminobenzo[d]oxazol-5-yl)-8,9-dihydro-7H-6-oxa-2,9a-diazabenzo [cd]azulen-4-yl)oxy)propanamide]",Ki,[1],0.000201 µM
"COc1ccc(-c2nc3cc(N[C@H](C(N)=O)C4CC4)cc4c3n2CCCO4)cc1OC(F)F [Example 163, (S)-2-Cyclopropyl-2-((1-(3-(difluoromethoxy)-4-methoxyphenyl)-8,9-dihydro-7H-6-oxa-2,9a-diazabenzo[cd]azulen-4-yl)amino)acetamide]",Ki,[1],0.0342 µM
"COc1ccc(-c2nc3cc(N[C@H](C(N)=O)C4CC4)cc4c3n2CCCO4)cc1C(N)=O [Example 164, (S)-5-(4-((2-Amino-1-cyclopropyl-2-oxoethyl)amino)-8,9-dihydro-7H-6-oxa-2,9a-diazabenzo[cd]azulen-1-yl)-2-methoxybenzamide]",Ki,[1],0.16 µM
"NC(=O)[C@@H](Nc1cc2c3c(c1)nc(-c1ccncc1)n3CCCO2)C1CC1 [Example 165, (S)-2-Cyclopropyl-2-((1-(pyridin-4-yl)-8,9-dihydro-7H-6-oxa-2,9a-diazabenzo[cd]azulen-4-yl)amino)acetamide]",Ki,[1],0.108 µM
"OCc1nc2cc(-c3nc4cc(Br)cc5c4n3CCCO5)ccc2o1 [Example 168, (5-(4-Bromo-8,9-dihydro-7H-6-oxa-2,9a-diazabenzo[cd]azulen-1-yl)benzo[d]oxazol-2-yl)methanol]",Ki,[1],0.402 µM
"NC(=O)[C@@H](Nc1cc2c3c(c1)nc(-c1ccnc4[nH]ncc14)n3CCCO2)C1CC1 [Example 169, (S)-2-((1-(1H-Pyrazolo[3,4-b]pyridin-4-yl)-8,9-dihydro-7H-6-oxa-2,9a-diazabenzo[cd]azulen-4-yl)amino)-2-cyclopropylacetamide]",Ki,[1],0.00392 µM
"NC(=O)[C@@H](Nc1cc2c3c(c1)nc(-c1ccc4nc(N)sc4c1)n3CCCO2)C1CC1 [Example 170, (S)-2-((1-(2-Aminobenzo[d]thiazol-6-yl)-8,9-dihydro-7H-6-oxa-2,9a-diazabenzo[cd]azulen-4-yl)amino)-2-cyclopropylacetamide]",Ki,[1],0.000614 µM
"Nc1nc2cc(-c3nc4cc(Br)cc5c4n3CCCCO5)ccc2o1 [Example 172, 5-(4-bromo-7,8,9,10-tetrahydro-6-oxa-2,10a-diazacycloocta[cd]-inden-1-yl)benzo[d]oxazol-2-amine]",Ki,,0.000501 µM
